Laboratory results reported in patent US4880817A, “O-functionalized derivatives of substituted isoquinolin-3-ols having cardiotonic and/or phosphodiesterase fraction III inhibiting properties and/or renal vasodilating properties” (Ortho Pharmaceutical Corporation, priority 1987, dated 1989).
Read-outs that look alike come from different tables or passages of the source.

System: adult mongrel dogs
Test: Renal vasodilating activity in anesthetized dogs
Type: in vivo, mongrel dog
Conditions: for change in vivo at 1.2 mg/kg / change in vivo at 6.2 mg/kg / change in vivo at 0.3 mg/kg: Canis lupus familiaris
Protocol: Goldberg et al., J. Pharmacol. Exp. Ther., 163, 188 (1968), performed an investigation of the structural requirements for dopamine-like renal vasodilation of phenethylamines and apomorphine. The following procedure is a variation of the assay described in that report.
Adult mongrel dogs were anesthetized and surgically prepared for electromagnetic measurement of renal artery blood flow. A carotid artery was cannulated for measuring arterial blood pressure and drugs were administered intravenously or intraarterially (via the renal artery). Heart rate was monitored with a cardiotachometer. Renal vascular resistance was calculated as the ratio of mean arterial blood pressure to renal artery blood flow. Dopamine was infused intravenously at 3 μg/kg/min for ten minutes (at an infusion rate of about 1 ml/min) to determine responsiveness of each dog to renal dopamine receptor stimulation. Cumulative dose-response data were obtained by infusing a compound of this invention at progressively increasing (usually three-fold) infusion rates, each dose being infused for five minutes. The maximum percent change from pre-drug control in renal artery blood flow (or in renal vascular resistance) was determined for each infusion dose.
RBF, RVR, MABP, and HR values are percent changes in renal blood flow, renal vascular resistance, mean arterial blood pressure, and heart rate, respectively, relative to control values.

[1] = dose 1.2 mpk, relative to controls, read-out: HR: percent change in heart rate
[2] = dose 1.2 mpk, relative to controls, read-out: MABP: percent change in mean arterial blood pressure
[3] = dose 1.2 mpk, relative to controls, read-out: RBF: percent change in renal blood flow
[4] = dose 1.2 mpk, relative to controls, read-out: RVR: percent change in renal vascular resistance
[5] = read-out: HR: percent change in heart rate, dose 6.2 mpk, relative to controls
[6] = read-out: MABP: percent change in mean arterial blood pressure, dose 6.2 mpk, relative to controls
[7] = read-out: RBF: percent change in renal blood flow, dose 6.2 mpk, relative to controls
[8] = read-out: RVR: percent change in renal vascular resistance, dose 6.2 mpk, relative to controls
[9] = read-out: HR: percent change in heart rate, dose 1.2 mpk, relative to controls
[10] = read-out: MABP: percent change in mean arterial blood pressure, dose 1.2 mpk, relative to controls
[11] = read-out: RBF: percent change in renal blood flow, dose 1.2 mpk, relative to controls
[12] = read-out: RVR: percent change in renal vascular resistance, dose 1.2 mpk, relative to controls
[13] = dose 1.2 mpk, relative to controls, 1.2 mg/kg

| Compound | change in vivo at 1.2 mg/kg [9] | change in vivo at 1.2 mg/kg [10] | change in vivo at 1.2 mg/kg [11] | change in vivo at 1.2 mg/kg [12] | other results |
| --- | --- | --- | --- | --- | --- |
| CCN(CC)C(=O)Oc1nc(C)c2cc(OC)c(OC)cc2c1NC(=O)Nc1ccc(OC)cc1 [Cmpd 51] |  |  |  |  | change in vivo at 1.2 mg/kg [1]: 25%; change in vivo at 1.2 mg/kg [2]: -6%; change in vivo at 1.2 mg/kg [3]: 17%; change in vivo at 1.2 mg/kg [4]: -20% |
| COc1cc2c(C)nc(OC(=O)N3CCCC3)c([N+](=O)[O-])c2cc1OC [Cmpd 52] |  |  |  |  | change in vivo at 6.2 mg/kg [5]: 0%; change in vivo at 6.2 mg/kg [6]: -15%; change in vivo at 6.2 mg/kg [7]: 41%; change in vivo at 6.2 mg/kg [8]: -37% |
| CCCCNC(=O)Nc1c(OC(=O)N2CCCC2)nc(C)c2cc(OC)c(OC)cc12 [Cmpd 55] | 2% | -4% | 14% | -14% |  |
| CCCCNC(=O)Nc1c(OC(=O)N(c2ccccc2)c2ccccc2)nc(C)c2cc(OC)c(OC)cc12 [Cmpd 57] | 7% | 4% | 28% | -18% |  |
| C=CCNC(=O)Nc1c(OC(=O)N2CCCC2)nc(C)c2cc(OC)c(OC)cc12 [Cmpd 59] | 2% | 1% | 23% | -16% |  |
| C=CCNC(=O)Nc1c(OC(=O)N(c2ccccc2)c2ccccc2)nc(C)c2cc(OC)c(OC)cc12 [Cmpd 60] | 8% | 4% | 27% | -17% |  |
| CCCCNC(=O)Nc1c(OC(=O)N(C(C)C)C(C)C)nc(C)c2cc(OC)c(OC)cc12 [Cmpd 61] | 11% | -1% | 47% | -32% |  |
| C=CCNC(=O)Nc1c(OC(=O)N(C(C)C)C(C)C)nc(C)c2cc(OC)c(OC)cc12 [Cmpd 62] | 0% | 11% | 17% | -5% |  |
| CCCCNC(=O)Nc1c(OS(=O)(=O)N(C)C)nc(C)c2cc(OC)c(OC)cc12 [Cmpd 64] |  |  |  |  | change in vivo at 1.2 mg/kg [1]: 0%; change in vivo at 1.2 mg/kg [2]: 4%; change in vivo at 1.2 mg/kg [3]: 15%; change in vivo at 1.2 mg/kg [4]: -9% |
| C=CCNC(=O)Nc1c(OS(=O)(=O)N(C)C)nc(C)c2cc(OC)c(OC)cc12 [Cmpd 65] |  |  |  |  | change in vivo at 1.2 mg/kg [1]: -7%; change in vivo at 1.2 mg/kg [2]: -1%; change in vivo at 1.2 mg/kg [3]: 25%; change in vivo at 1.2 mg/kg [4]: -22% |
| C=CCNC(=O)Nc1c(OC(=O)N(C)C)nc(C)c2cc(OC)c(OC)cc12 [Cmpd 67] | 0% |  |  |  | MABP: percent change in mean arterial blood pressure [13]: +7 percent change; RBF: percent change in renal blood flow [13]: +50 percent change; RVR: percent change in renal vascular resistance [13]: -28 percent change |
| COc1cc2c(C)nc(OC(=O)N3CCN(C(=O)OC(C)(C)C)CC3)c([N+](=O)[O-])c2cc1OC [Cmpd 68] |  |  |  |  | change in vivo at 0.3 mg/kg (read-out: HR: percent change in heart rate, dose 0.3 mpk, relative to controls): 11%; change in vivo at 0.3 mg/kg (read-out: MABP: percent change in mean arterial blood pressure, dose 0.3 mpk, relative to controls): -1%; change in vivo at 0.3 mg/kg (read-out: RBF: percent change in renal blood flow, dose 0.3 mpk, relative to controls): 17%; change in vivo at 0.3 mg/kg (read-out: RVR: percent change in renal vascular resistance, dose 0.3 mpk, relative to controls): -13% |
| CCOc1cc2c(C)nc(OC(=O)N3CCN(C(=O)OC(C)(C)C)CC3)c([N+](=O)[O-])c2cc1OC [Cmpd 69] |  |  |  |  | change in vivo at 6.2 mg/kg [5]: 21%; change in vivo at 6.2 mg/kg [6]: 6%; change in vivo at 6.2 mg/kg [7]: 24%; change in vivo at 6.2 mg/kg [8]: -14% |
| C=CCNC(=O)Nc1c(OC(=O)N2CCN(C(=O)OC(C)(C)C)CC2)nc(C)c2cc(OC)c(OC)cc12 [Cmpd 75] | 12% | 9% | 27% | -15% |  |
| CCCCNC(=O)Nc1c(OC(=O)N2CCN(C(=O)OC(C)(C)C)CC2)nc(C)c2cc(OC)c(OC)cc12 [Cmpd 76] | -9% | -2% | 23% | -22% |  |
| COc1cc2c(C)nc(OCOC(=O)C(C)(C)C)c([N+](=O)[O-])c2cc1OC [Cmpd 77] |  |  |  |  | change in vivo at 6.2 mg/kg (dose 6.2 mpk, relative to controls, read-out: HR: percent change in heart rate): 5%; change in vivo at 6.2 mg/kg (dose 6.2 mpk, relative to controls, read-out: MABP: percent change in mean arterial blood pressure): -3%; change in vivo at 6.2 mg/kg (dose 6.2 mpk, relative to controls, read-out: RBF: percent change in renal blood flow): 7%; change in vivo at 6.2 mg/kg (dose 6.2 mpk, relative to controls, read-out: RVR: percent change in renal vascular resistance): -8% |
